PubChem BioAssay (NCI)
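48-hour exposure; five concentrations; linearly interpolated endpoints. TGI is the concentration that stops growth completely.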

What was measured:
Assay in all cases: growth of human tumour cells (NCI), 48 h
[1] = system: M14 melanoma
[2] = system: UACC-257 melanoma
[3] = system: SNB-75 CNS
[4] = system: T-47D breast
[5] = system: EKVX NSCLC
[6] = system: SK-MEL-5 melanoma
[7] = system: NCI-H226 lung
[8] = system: SK-MEL-28 melanoma
[9] = system: MDA-MB-435

SMILES	TGI [1]	TGI [2]	TGI [3]	TGI [4]	TGI [5]	TGI [6]	TGI [7]	TGI [8]	TGI [9]
COC(=O)C1CCCCCCCCCCC12SCCCS2 (centres undefined)	31 µM	40.2 µM	81.2 µM	> 100 µM	35.6 µM	41.9 µM	42.8 µM	36.1 µM	36.2 µM
C[C@H]1ON2CCC[C@@H]2[C@@H]1C(=O)N1C2CC3CCC2(CS1(=O)=O)C3(C)C (some centres undefined)	> 100 µM	> 100 µM	> 100 µM	> 100 µM	> 100 µM	> 100 µM	> 100 µM	> 100 µM	> 100 µM
COc1ccc2[nH]c3c(c2c1)CCc1ccccc1-3	> 100 µM	> 100 µM	75.2 µM	> 100 µM	> 100 µM	> 100 µM	> 100 µM	> 100 µM	> 100 µM
COc1ccc(C(c2ccccc2)N2C(=O)CCC2C(=O)O)cc1OC (centres undefined)	> 100 µM	> 100 µM	> 100 µM	> 100 µM	> 100 µM	> 100 µM	> 100 µM	> 100 µM	> 100 µM
Cc1ccc(NC(=O)c2cc(S(=O)(=O)N3CCNNC3=O)c(S)cc2Cl)cc1	> 100 µM	> 100 µM	> 100 µM	> 100 µM	> 100 µM	> 100 µM	> 100 µM	> 100 µM	> 100 µM
COC(=O)/C=C(\S/C(=C(/c1ccccc1)n1cc(C(=O)OC)c(C(=O)OC)n1)c1ccccc1)C(=O)OC	29.8 µM	23.9 µM	95.2 µM	14.1 µM	32.1 µM	44.5 µM	> 100 µM	60.4 µM	32.9 µM
O=C1NC(c2ccccc2)C1N(Cc1ccccc1)Cc1ccccc1 (centres undefined)	> 100 µM	> 100 µM	> 100 µM	> 100 µM	> 100 µM	> 100 µM	> 100 µM	> 100 µM	> 100 µM
c1ncc(C23C4C5C6C4C2C6C53)[nH]1 (centres undefined)	> 100 µM	> 100 µM	> 100 µM	> 100 µM	> 100 µM	> 100 µM	> 100 µM	> 100 µM	> 100 µM
CSc1nc2ccccc2c(=O)n1-c1cccc(C)c1	> 100 µM	> 100 µM	> 100 µM	> 100 µM	> 100 µM	66.2 µM	> 100 µM	> 100 µM	> 100 µM
COC(=O)/C=C1/OC(c2ccccc2)=CC1=O	51.5 µM	> 52.7 µM	30.9 µM	49.9 µM	> 62.2 µM	51.3 µM	67.3 µM	> 58 µM	35.5 µM
CC1(C)O[C@@H]([C@@H](O)[C@H](O)C2SCCCS2)[C@@H](CO)O1	> 100 µM	> 100 µM	> 100 µM	> 100 µM	> 100 µM	> 100 µM	> 100 µM	> 100 µM	> 100 µM
